Experimental data published in US12297238B2, “FimH mutants, compositions therewith and use thereof” (Janssen Pharmaceuticals, Inc., priority 2021, dated 2025).

Key:
Conditions in all cases: SPR, HBS-N pH 7.4, single cycle kinetics
[1] = target: E. coli FimH lectin domain (FimHLD 23-10, SEQ ID NO: 1) variant R60P-Q133K (Escherichia coli, UniProt P08191, Q154K/R81P/V48A)
Procedure: (§1) To gain a detailed insight into the binding affinity and kinetics of the interaction of FimH lectin domain variants with the n-Heptyl-α-D-mannopyranoside ligand, surface plasmon resonance (SPR) measurements were performed. In brief, the FimH variants were titrated into the Mannoside ligand 5 surface (Rabbani S et al, J Biol. Chem., 2018, 293(5):1835-1849) with the top concentrations of either 3 or 10 μM in HBS-N(0.01 M HEPES, pH 7.4, 0.15 M NaCl, 3 mM EDTA, 0.05% surfactant P20). The proteins were injected from 0.12 to 10 μM or 0.036 to 3.0 μM using a single cycle kinetics injection.
(§2) These mutants were taken as positive controls. […] Additionally, wild-type (WT) FimH lectin domain was taken along as a negative control.
(§3) The variants affinity for binding to mannose was assessed using SPR.

[2] = target: E. coli FimH lectin domain (FimHLD 23-10, SEQ ID NO: 1) variant F144V/F71Y (Escherichia coli, UniProt P08191, F165V/F92Y/V48A)
Sequence of E. coli FimH lectin domain (FimHLD 23-10, SEQ ID NO: 1) variant F144V/F71Y (P08191 22-180 V48A/F92Y/F165V): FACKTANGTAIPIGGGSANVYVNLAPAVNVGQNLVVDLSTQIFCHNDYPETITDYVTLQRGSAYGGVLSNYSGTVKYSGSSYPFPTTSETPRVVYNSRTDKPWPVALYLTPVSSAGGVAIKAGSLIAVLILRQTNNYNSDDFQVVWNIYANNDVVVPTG
Procedure: as §1, §2, §3

[3] = target: E. coli FimH lectin domain (FimHLD 23-10, SEQ ID NO: 1) variant R60P (Escherichia coli, UniProt P08191, R81P/V48A)
Sequence of E. coli FimH lectin domain (FimHLD 23-10, SEQ ID NO: 1) variant R60P (P08191 22-180 V48A/R81P): as the sequence (P08191 22-180 V48A/F92Y/F165V) above, with R60P, Y71F, V144F counted along it
Procedure: as §1, §2, §3

[4] = target: E. coli FimH lectin domain (FimHLD 23-10, SEQ ID NO: 1) variant F71Y (Escherichia coli, UniProt P08191, F92Y/V48A)
Sequence of E. coli FimH lectin domain (FimHLD 23-10, SEQ ID NO: 1) variant F71Y (P08191 22-180 V48A/F92Y): as the sequence (P08191 22-180 V48A/F92Y/F165V) above, with V144F counted along it
Procedure: as §1, §2, §3

[5] = target: E. coli FimH lectin domain (FimHLD 23-10, SEQ ID NO: 1) variant Q133K (Escherichia coli, UniProt P08191, Q154K/V48A)
Sequence of E. coli FimH lectin domain (FimHLD 23-10, SEQ ID NO: 1) variant Q133K (P08191 22-180 V48A/Q154K): as the sequence (P08191 22-180 V48A/F92Y/F165V) above, with Y71F, Q133K, V144F counted along it
Procedure: as §1, §2, §3

[6] = target: E. coli FimH lectin domain (FimHLD 23-10, SEQ ID NO: 1) variant F144V (Escherichia coli, UniProt P08191, F165V/V48A)
Sequence of E. coli FimH lectin domain (FimHLD 23-10, SEQ ID NO: 1) variant F144V (P08191 22-180 V48A/F165V): as the sequence (P08191 22-180 V48A/F92Y/F165V) above, with Y71F counted along it
Procedure: as §1, §2, §3

Sequence of E. coli FimH lectin domain (FimHLD 23-10, SEQ ID NO: 1) variant R60P-Q133K (P08191 22-180 V48A/R81P/Q154K): as the sequence (P08191 22-180 V48A/F92Y/F165V) above, with R60P, Y71F, Q133K, V144F counted along it

Structure (SMILES): CCCCCCCO[C@H]1O[C@H](CO)[C@@H](O)[C@H](O)[C@@H]1O [n-Heptyl-α-D-mannopyranoside]
- Affinity (KD) [1]: did not bind to mannoside at all
- Affinity (KD) [2]: completely abolished
- Affinity (KD) [3]: low affinity
- Affinity (KD) [4]: some affinity
- Affinity (KD) [5]: did not bind to mannoside at all
- Affinity (KD) [6]: completely abolished
